Experimental data as given in patent publication US8889696B2, “Substituted pyrido[2,3-d]pyrimidin-7(8H)-ones and therapeutic uses thereof” (Temple University—Of The Commonwealth System Of Higher …, priority 2009, dated 2014).

Tests used:
[1] = test system: K562 (chronic myelogenous leukemia); assay: Effect on tumor cell lines (Latham assay), K562; type: cell-based; details: Homo sapiens; K562 cells, examined 96 hours after treatment; read-out: Potencies (IC50) K 562
Protocol: (§1) The plated cells were treated 24 hours later with a compound of the invention dissolved in DMSO at multiple concentrations ranging from 0.01 μM to 100 μM. […] When necessary, the total number of viable cells was determined by trypsinizing the wells and counting the number of viable cells, as determined by trypan blue exclusion, using a hemacytometer.

DU145 (prostate cancer) = assay: Effect on tumor cell lines (Latham assay), DU145; type: cell-based; details: Homo sapiens, DU-145; DU145 cells, examined 96 hours after treatment; read-out: Potencies (IC50) DU 145
Protocol: as §1

| Structure (SMILES) | IC50 [1] [µM] | IC50 (DU145 (prostate cancer)) [µM] | melting point [°C] |
| --- | --- | --- | --- |
| Cn1c(=O)c(S(=O)(=O)c2ccc(C(=O)O)cc2)cc2cnc(Nc3ccc4[nH]ccc4c3)nc21 [Example 37, 4-(2-(1H-indol-5-ylamino)-7,8-dihydro-8-methyl-7-oxopyrido[2,3-d]pyrimidin-6-ylsulfonyl)benzoic acid] | 10 to 25 | 10 to 25 | 262 to 265 |
| Cn1c(=O)c(S(=O)(=O)c2ccccc2)cc2cnc(Nc3ccc4[nH]ccc4c3)nc21 [Example 21, 2-(1H-indol-5-ylamino)-8-methyl-6-(phenylsulfonyl)pyrido[2,3-d]pyrimidin-7(8H)-one] | < 1 | 1 to 10 | 340 to 344 |
| CCCn1c(=O)c(S(=O)(=O)c2ccccc2)cc2cnc(SC)nc21 [Example 48, 2-(methylsulfanyl)-6-(phenylsulfonyl)-8-propylpyrido[2,3-d]pyrimidin-7(8H)-one] | 50 to 100 | > 100 | 231 to 232 |
| Cn1c(=O)c(S(=O)(=O)c2ccccc2)cc2cnc(Nc3ccc4cc[nH]c4c3)nc21 [Example 25, 2-(1H-indol-6-ylamino)-8-methyl-6-(phenylsulfonyl)pyrido[2,3-d]pyrimidin-7(8H)-one] | 25 to 50 | 25 to 50 | > 350 |
| CCCn1c(=O)c(S(=O)(=O)c2ccccc2)cc2cnc(Nc3cccc4[nH]ccc34)nc21 [Example 45, 2-(1H-indol-4-ylamino)-6-(phenylsulfonyl)-8-propylpyrido[2,3-d]pyrimidin-7(8H)-one] | 1 to 10 | 10 to 25 | 260 to 261 |
| CCn1c(=O)c(S(=O)(=O)c2ccccc2)cc2cnc(Nc3ccc4[nH]ccc4c3)nc21 [Example 54, 2-(1H-indol-5-ylamino)-8-ethyl-6-(phenylsulfonyl)pyrido[2,3-d]pyrimidin-7(8H)-one] | < 1 | 1 to 10 | > 400 |
| Cc1ccc(S(=O)(=O)c2cc3cnc(Nc4ccc5ncccc5c4)nc3n(C)c2=O)cc1 [Example 15, 8-methyl-2-(quinolin-6-ylamino)-6-tosylpyrido[2,3-]pyrimidin-7(8H)-one] | 10 to 25 | 10 to 25 | 325 to 330 |
| O=c1c(S(=O)(=O)c2ccccc2)cc2cnc(Nc3ccc(N4CCOCC4)cc3)nc2n1C1CCCC1 [Example 63, 2-(4-morpholinophenylamino)-8-cyclopentyl-6-(phenylsulfonyl)pyrido[2,3-d]pyrimidin-7(8H)-one] | 10 to 25 | 10 to 25 | 221 to 222 |
| Cn1c(=O)c(S(=O)(=O)c2ccc(F)cc2)cc2cnc(Nc3ccc4[nH]ncc4c3)nc21 [Example 13, 2-(1H-indazol-5-ylamino)-6-(4-fluorophenylsulfonyl)-8-methylpyrido[2,3-d]pyrimidin-7(8H)-one] | 1 to 10 | 1 to 10 | 160 to 165 |
| Cc1ccc(S(=O)(=O)c2cc3cnc(Nc4ccc5cc[nH]c5c4)nc3n(C)c2=O)cc1 [Example 28, 2-(1H-indol-6-ylamino)-8-methyl-6-tosylpyrido[2,3-d]pyrimidin-7(8H)-one] | 10 to 25 | 10 to 25 | 334 to 336 |
| O=c1c(S(=O)(=O)c2ccccc2)cc2cnc(NC3CCCC3)nc2n1C1CCCC1 [Example 61, 8-cyclopentyl-2-(cyclopentylamino)-6-(phenylsulfonyl)pyrido[2,3-d]pyrimidin-7(8H)-one] | > 100 | > 100 | 209 to 210 |
| Cc1ccc(S(=O)(=O)c2cc3cnc(Nc4ccc5c(c4)CC(=O)N5)nc3n(C)c2=O)cc1 [Example 27, 2-(2-oxoindolin-5-ylamino)-8-methyl-6-tosylpyrido[2,3-d]pyrimidin-7(8H)-one] | 25 to 50 | 50 to 100 | 280 |
| CSc1ncc2cc(S(=O)(=O)c3ccc(Cl)cc3)c(=O)n(C3CCCC3)c2n1 [Example 60, 6-(4-chlorophenylsulfonyl)-8-cyclopentyl-2-(methylsulfanyl)pyrido[2,3-d]pyrimidin-7(8H)-one] | 50 to 100 | 50 to 100 | 222 to 223 |
| CN1CCN(c2ccc(Nc3ncc4cc(S(=O)(=O)c5ccc(Cl)cc5)c(=O)n(C5CCCC5)c4n3)cc2)CC1 [Example 58, 2-(4-(4-methylpiperazin-1-yl)phenylamine)-6-(4-chlorophenylsulfonyl)-8-cyclopentylpyrido[2,3-d]pyrimidin-7(8H)-one] | 1 to 10 | 10 to 25 | – |
| Cn1c(=O)c(S(=O)(=O)c2ccc(F)cc2)cc2cnc(Nc3cccc4[nH]ccc34)nc21 [Example 10, 2-(1H-indol-4-ylamino)-6-(4-fluorophenylsulfonyl)-8-methylpyrido[2,3-d]pyrimidin-7(8H)-one] | < 1 | < 1 | > 350 |
| COc1ccc(Nc2ncc3cc(S(=O)(=O)c4ccccc4)c(=O)n(C4CCCC4)c3n2)cc1 [Example 56, 2-(4-methoxyphenylamino)-8-cyclopentyl-6-(phenylsulfonyl)pyrido[2,3-d]pyrimidin-7(8H)-one] | 1 to 10 | 25 to 50 | 201 |
| CCCn1c(=O)c(S(=O)(=O)c2ccccc2)cc2cnc(Nc3ccc4cc[nH]c4c3)nc21 [Example 44, 2-(1H-indol-6-ylamino)-6-(phenylsulfonyl)-8-propylpyrido[2,3-d]pyrimidin-7(8H)-one] | 1 to 10 | 1 to 10 | 272 to 273 |
| O=c1c(S(=O)(=O)c2ccc(Cl)cc2)cc2cnc(Nc3ccc(N4CCOCC4)cc3)nc2n1C1CCCCC1 [Example 52, 6-(4-chlorophenylsulfonyl)-2-(4-morpholinophenylamino)-8-cyclohexylpyrido[2,3-d]pyrimidin-7(8H)-one] | 1 to 10 | 10 to 25 | 329 to 331 |
| CSc1ncc2cc(S(=O)(=O)c3ccccc3)c(=O)n(C3CCCC3)c2n1 [Example 67, 8-cyclopentyl-2-(methylsulfanyl)-6-(phenylsulfonyl)pyrido[2,3-d]pyrimidin-7(8H)-one] | 50 to 100 | 50 to 100 | 184 to 185 |
| Cn1c(=O)c(S(=O)(=O)c2ccc(Cl)cc2)cc2cnc(Nc3ccc4[nH]ccc4c3)nc21 [Example 6, 2-(1H-indol-5-ylamino)-6-(4-chlorophenylsulfonyl)-8-methylpyrido[2,3-d]pyrimidin-7(8H)-one] | < 1 | < 1 | 316 to 320 |
| Cn1c(=O)c(S(=O)(=O)c2ccc(Cl)cc2)cc2cnc(Nc3cnc4[nH]ccc4c3)nc21 [Example 32, 2-(1H-pyrrolo[2,3-b]pyridin-5-ylamino)-6-(4-chlorophenylsulfonyl)-8-methylpyrido[2,3-d]pyrimidin-7(8H)-one] | 1 to 10 | 1 to 10 | 296 to 298 |
| Cn1c(=O)c(S(=O)(=O)c2ccc(F)c(Cl)c2)cc2cnc(Nc3ccc4c(c3)CC(=O)N4)nc21 [Example 36, 2-(2-oxoindolin-5-ylamino)-6-(3-chloro-4-fluorophenylsulfonyl)-8-methylpyrido[2,3-d]pyrimidin-7(8H)-one] | 10 to 25 | 10 to 25 | – |
| CN1CCN(c2ccc(Nc3ncc4cc(S(=O)(=O)c5ccccc5)c(=O)n(C5CCCC5)c4n3)cc2)CC1 [Example 64, 2-(4-(4-methylpiperazin-1-yl)phenylamino)-8-cyclopentyl-6-(phenylsulfonyl)pyrido[2,3-d]pyrimidin-7(8H)-one] | 1 to 10 | < 1 | – |
| Cn1c(=O)c(S(=O)(=O)c2ccc(F)c(Cl)c2)cc2cnc(Nc3ccc4[nH]ncc4c3)nc21 [Example 38, 2-(1H-indazol-5-ylamino)-6-(3-chloro-4-fluorophenylsulfonyl)-8-methylpyrido[2,3-d]pyrimidin-7(8H)-one] | 10 to 25 | 10 to 25 | – |
| Cn1c(=O)c(S(=O)(=O)c2ccc(O)cc2)cc2cnc(Nc3ccc4[nH]ccc4c3)nc21 [Example 43, 2-(1H-indol-5-ylamino)-6-(4-hydroxyphenylsulfonyl)-8-methylpyrido[2,3-d]pyrimidin-7(8H)-one] | < 1 | < 1 | – |
| O=c1[nH]c2nc(Nc3ccc4[nH]ccc4c3)ncc2cc1S(=O)(=O)c1ccc(F)c(Cl)c1 [Example 46, 2-(1H-indol-5-ylamino)-6-(3-chloro-4-fluorophenylsulfonyl)pyrido[2,3-d]pyrimidin-7(8H)-one] | 10 to 25 | 50 to 100 | – |
| Cn1c(=O)c(S(=O)(=O)c2ccc(F)cc2F)cc2cnc(NCCN3CCOCC3)nc21 [Example 42, 6-(2,4-difluorophenylsulfonyl)-2-(2-morpholinoethylamino)-8-methylpyrido[2,3-d]pyrimidin-7(8H)-one] | 50 to 100 | 50 to 100 | – |
| Cn1c(=O)c(S(=O)(=O)c2ccc(F)cc2F)cc2cnc(Nc3ccc4c(c3)CC(=O)N4)nc21 [Example 41, 6-(2,4-difluorophenylsulfonyl)-2-(2-oxoindolin-5-ylamino)-8-methylpyrido[2,3-d]pyrimidin-7(8H)-one] | 50 to 100 | 50 to 100 | – |
| C[S+]([O-])c1ncc2cc(S(=O)(=O)c3ccc(Cl)cc3)c(=O)n(C3CCCC3)c2n1 (centres unmarked) [Example 59, 6-(4-chlorophenylsulfonyl)-8-cyclopentyl-2-(methylsulfinyl)pyrido[2,3-d]pyrimidin-7(8H)-one] | 1 to 10 | 10 to 25 | – |
| C[S+]([O-])c1ncc2cc(S(=O)(=O)c3ccccc3)c(=O)n(C3CCCC3)c2n1 (centres unmarked) [Example 66, 8-cyclopentyl-2-(methylsulfinyl)-6-(phenylsulfonyl)pyrido[2,3-d]pyrimidin-7(8H)-one] | 10 to 25 | 50 to 100 | – |
